Measurements taken from the NIST ThermoML archive (doi:10.1016/j.jct.2004.12.002).
Numbers after ± are expanded uncertainties.

Columns and labels:
[1] = 101 kPa, Liquid
[2] = xn = mol fraction of the nth substance listed; settings: 101 kPa, Liquid

CCO [ethanol]
mass density ([1]; 293.22 K): 789.54 ± 0.47 kg/m3 | mass density ([1]; 298.16 K): 785.46 ± 0.47 kg/m3 | mass density ([1]; 303.17 K): 781.05 ± 0.48 kg/m3 | mass density ([1]; 308.17 K): 776.75 ± 0.49 kg/m3 | mass density ([1]; 313.17 K): 772.42 ± 0.49 kg/m3 | mass density ([1]; 318.18 K): 768 ± 0.5 kg/m3

CCCCCCC [heptane] + CCO
mass density ([2]; 293.21 K, x2 = 0.2043): 691.74 ± 0.63 kg/m3 | mass density ([2]; 293.21 K, x2 = 0.3044): 697.14 ± 0.62 kg/m3 | mass density ([2]; 293.21 K, x2 = 0.3971): 703.04 ± 0.61 kg/m3 | mass density ([2]; 293.21 K, x2 = 0.4975): 710.62 ± 0.6 kg/m3 | mass density ([2]; 293.21 K, x2 = 0.6954): 730.78 ± 0.57 kg/m3 | mass density ([2]; 293.21 K, x2 = 0.8023): 745.94 ± 0.54 kg/m3 | mass density ([2]; 293.21 K, x2 = 0.9009): 764.36 ± 0.51 kg/m3 | mass density ([2]; 293.22 K, x2 = 0): 683.82 ± 0.65 kg/m3 | mass density ([2]; 293.22 K, x2 = 0.0237): 684.36 ± 0.65 kg/m3 | mass density ([2]; 293.22 K, x2 = 0.0507): 685.26 ± 0.64 kg/m3 | mass density ([2]; 293.22 K, x2 = 0.1041): 687.27 ± 0.64 kg/m3 | mass density ([2]; 293.22 K, x2 = 0.6043): 720.54 ± 0.58 kg/m3 | mass density ([2]; 293.22 K, x2 = 0.9531): 776.53 ± 0.49 kg/m3 | mass density ([2]; 298.16 K, x2 = 0): 679.75 ± 0.65 kg/m3 | mass density ([2]; 298.17 K, x2 = 0.0237): 680.19 ± 0.65 kg/m3 | mass density ([2]; 298.17 K, x2 = 0.0507): 681.04 ± 0.65 kg/m3 | mass density ([2]; 298.17 K, x2 = 0.1041): 683.06 ± 0.65 kg/m3 | mass density ([2]; 298.17 K, x2 = 0.2043): 687.5 ± 0.64 kg/m3 | mass density ([2]; 298.17 K, x2 = 0.3044): 692.93 ± 0.63 kg/m3 | mass density ([2]; 298.17 K, x2 = 0.3971): 698.76 ± 0.62 kg/m3 | mass density ([2]; 298.17 K, x2 = 0.4975): 706.35 ± 0.6 kg/m3 | mass density ([2]; 298.17 K, x2 = 0.6043): 716.27 ± 0.59 kg/m3 | mass density ([2]; 298.17 K, x2 = 0.6954): 726.58 ± 0.57 kg/m3 | mass density ([2]; 298.17 K, x2 = 0.8023): 741.81 ± 0.54 kg/m3 | mass density ([2]; 298.17 K, x2 = 0.9009): 760.18 ± 0.51 kg/m3 | mass density ([2]; 298.17 K, x2 = 0.9531): 772.37 ± 0.49 kg/m3 | mass density ([2]; 303.17 K, x2 = 0): 675.51 ± 0.66 kg/m3 | mass density ([2]; 303.17 K, x2 = 0.0237): 675.81 ± 0.66 kg/m3 | mass density ([2]; 303.17 K, x2 = 0.0507): 676.65 ± 0.66 kg/m3 | mass density ([2]; 303.17 K, x2 = 0.1041): 678.74 ± 0.65 kg/m3 | mass density ([2]; 303.17 K, x2 = 0.2043): 683.12 ± 0.64 kg/m3 | mass density ([2]; 303.17 K, x2 = 0.3044): 688.45 ± 0.63 kg/m3 | mass density ([2]; 303.17 K, x2 = 0.3971): 694.32 ± 0.62 kg/m3 | mass density ([2]; 303.17 K, x2 = 0.4975): 701.88 ± 0.61 kg/m3 | mass density ([2]; 303.17 K, x2 = 0.6043): 711.77 ± 0.59 kg/m3 | mass density ([2]; 303.17 K, x2 = 0.6954): 722.09 ± 0.58 kg/m3 | mass density ([2]; 303.17 K, x2 = 0.8023): 737.39 ± 0.55 kg/m3 | mass density ([2]; 303.17 K, x2 = 0.9009): 755.87 ± 0.52 kg/m3 | mass density ([2]; 303.17 K, x2 = 0.9531): 768.14 ± 0.5 kg/m3 | mass density ([2]; 308.17 K, x2 = 0): 671.21 ± 0.67 kg/m3 | mass density ([2]; 308.17 K, x2 = 0.0237): 671.53 ± 0.66 kg/m3 | mass density ([2]; 308.17 K, x2 = 0.0507): 672.35 ± 0.66 kg/m3 | mass density ([2]; 308.17 K, x2 = 0.1041): 674.32 ± 0.66 kg/m3 | mass density ([2]; 308.17 K, x2 = 0.2043): 678.62 ± 0.65 kg/m3 | mass density ([2]; 308.17 K, x2 = 0.3044): 683.9 ± 0.64 kg/m3 | mass density ([2]; 308.17 K, x2 = 0.3971): 689.82 ± 0.63 kg/m3 | mass density ([2]; 308.17 K, x2 = 0.4975): 697.41 ± 0.62 kg/m3 | mass density ([2]; 308.17 K, x2 = 0.6043): 707.35 ± 0.6 kg/m3 | mass density ([2]; 308.17 K, x2 = 0.6954): 717.65 ± 0.58 kg/m3 | mass density ([2]; 308.17 K, x2 = 0.8023): 733.18 ± 0.56 kg/m3 | mass density ([2]; 308.17 K, x2 = 0.9009): 751.57 ± 0.53 kg/m3 | mass density ([2]; 308.17 K, x2 = 0.9531): 763.83 ± 0.51 kg/m3 | mass density ([2]; 313.17 K, x2 = 0): 666.97 ± 0.67 kg/m3 | mass density ([2]; 313.17 K, x2 = 0.0237): 667.19 ± 0.67 kg/m3 | mass density ([2]; 313.17 K, x2 = 0.0507): 667.92 ± 0.67 kg/m3 | mass density ([2]; 313.17 K, x2 = 0.1041): 669.78 ± 0.67 kg/m3 | mass density ([2]; 313.17 K, x2 = 0.2043): 674.12 ± 0.66 kg/m3 | mass density ([2]; 313.17 K, x2 = 0.3044): 679.46 ± 0.65 kg/m3 | mass density ([2]; 313.17 K, x2 = 0.3971): 685.29 ± 0.64 kg/m3 | mass density ([2]; 313.17 K, x2 = 0.4975): 692.92 ± 0.62 kg/m3 | mass density ([2]; 313.17 K, x2 = 0.6043): 702.8 ± 0.61 kg/m3 | mass density ([2]; 313.17 K, x2 = 0.6954): 713.21 ± 0.59 kg/m3 | mass density ([2]; 313.17 K, x2 = 0.8023): 728.57 ± 0.57 kg/m3 | mass density ([2]; 313.17 K, x2 = 0.9009): 747.21 ± 0.53 kg/m3 | mass density ([2]; 313.17 K, x2 = 0.9531): 759.41 ± 0.51 kg/m3 | mass density ([2]; 318.17 K, x2 = 0.0237): 663.59 ± 0.68 kg/m3 | mass density ([2]; 318.17 K, x2 = 0.1041): 665.46 ± 0.67 kg/m3 | mass density ([2]; 318.17 K, x2 = 0.2043): 669.66 ± 0.66 kg/m3 | mass density ([2]; 318.17 K, x2 = 0.3044): 674.88 ± 0.65 kg/m3 | mass density ([2]; 318.17 K, x2 = 0.3971): 680.74 ± 0.64 kg/m3 | mass density ([2]; 318.17 K, x2 = 0.4975): 688.34 ± 0.63 kg/m3 | mass density ([2]; 318.17 K, x2 = 0.6043): 698.25 ± 0.61 kg/m3 | mass density ([2]; 318.17 K, x2 = 0.6954): 708.71 ± 0.59 kg/m3 | mass density ([2]; 318.17 K, x2 = 0.8023): 724.14 ± 0.57 kg/m3 | mass density ([2]; 318.17 K, x2 = 0.9009): 742.91 ± 0.54 kg/m3 | mass density ([2]; 318.18 K, x2 = 0): 662.67 ± 0.68 kg/m3 | mass density ([2]; 318.18 K, x2 = 0.0507): 662.82 ± 0.68 kg/m3 | mass density ([2]; 318.18 K, x2 = 0.9531): 754.95 ± 0.52 kg/m3

CCCCCCC [heptane]
mass density ([1]; 293.22 K): 683.82 ± 0.65 kg/m3 | mass density ([1]; 298.16 K): 679.75 ± 0.65 kg/m3 | mass density ([1]; 303.17 K): 675.51 ± 0.66 kg/m3 | mass density ([1]; 308.17 K): 671.21 ± 0.67 kg/m3 | mass density ([1]; 313.17 K): 666.97 ± 0.67 kg/m3 | mass density ([1]; 318.18 K): 662.67 ± 0.68 kg/m3

CCO [ethanol] + CCCCCCC
mass density ([2]; 293.22 K, x1 = 1): 789.54 ± 0.47 kg/m3 | mass density ([2]; 298.16 K, x1 = 1): 785.46 ± 0.47 kg/m3 | mass density ([2]; 303.17 K, x1 = 1): 781.05 ± 0.48 kg/m3 | mass density ([2]; 308.17 K, x1 = 1): 776.75 ± 0.49 kg/m3 | mass density ([2]; 313.17 K, x1 = 1): 772.42 ± 0.49 kg/m3 | mass density ([2]; 318.18 K, x1 = 1): 768 ± 0.5 kg/m3
